Measurements as given in patent US9453242B2, “Method and culture medium for preparing mammalian ovum or embryo in which zona pellucida has been thinned or eliminated, and method for fertilization using mammalian ovum prepared by same method” (NATIONAL UNIVERISTY CORPORATION KUMAMOTO UNIVERSITY, priority 2010, dated 2016).
Like-named read-outs stand apart in the source and are kept apart here.

Key:
[1] = test system: mouse unfertilized ovum (cumulus-oocyte complexes)
Procedure: A sperm suspension is pre-incubated in 90 μl of a TYH culture medium at 37° C. for 30 minutes, and under a stereomicroscope, sperms showing motility are collected, avoiding nonmotile sperms, and used for fertilization. The pre-incubated sperm suspension (10 μl) is added to 90 μl of an HTF culture medium (±glutathione) into which cumulus-oocyte complexes (COCs) have been previously introduced (insemination), and these are co-incubated in an incubator for 5 to 6 hours (37° C., 5% CO2), thereby performing fertilization. Thereafter, the ovum is washed with drops of new HTF, and the ovum is observed. Those judged to parthenogenetic (only one pronucleus is recognized in ooplasm) are excluded, and on the following day (24 hours after insemination), only 2-cell stage embryos are selected, and fertilization rate is determined according to the following formula. In vitro fertilization rate (%)=(number of 2-cell stage embryo)/(number of 2-cell stage embryo+number of unfertilized ovum)×100
According to the ordinary method as described above, fresh sperms and frozen sperms of C57BL/6J mice and refrigerated sperms (refrigerated for 2 days) of ICR mice were used to prepare sperm suspensions, which were used for conducting in vitro fertilization. Further, according to the ordinary method as described above, mouse fresh unfertilized ovums were prepared and cumulus-oocyte complexes were obtained.
The HTF culture medium was prepared according to the composition table described above. To the prepared HTF culture medium was added reduced glutathione so that its concentration was 1 mM (0.307 mg/ml), to prepare a glutathione-containing culture medium. Specifically, the HTF culture medium was prepared according to the composition table, and the culture medium was enclosed in an amount of 5 ml for each operation into an ample (component A). Further, 30.7 mg of reduced glutathione (available from SIGMA) and 593.8 mg of NaCl were mixed, then, the mixture was dispensed in one-time use amount (glutathione 1.535 mg/mixture 31.225 mg) (component B). Until use, these reagents were refrigerated, and directly before use, the component A and the component B were mixed and used for insemination. As the control, only the component A (THF culture medium containing no glutathione added) was used.
Specifically, into 90 μl of a HTF culture medium (glutathione concentration: 1 mM) containing cumulus-oocyte complexes (COCs) in a dish were added sperm suspensions (collected motile sperms) of fresh sperms, frozen sperms and refrigerated sperms each in an amount of 10 μl, and fertilization was conducted and fertilization rate was determined according to the above-described theory. An HTF culture medium containing no glutathione was used as the control.
Fertilization rate was investigated using various reduced glutathione concentrations, in the same manner as in Example 1. As the sperm, frozen sperms of C57BL/6J mice were used, and processed according to FIG. 1.
Regarding the sperms, fresh sperms and frozen sperms pre-incubated with MBCD were used in performing fertilization. The concentration of glutathione in an HTF culture medium was 0.25 mM in the case of fresh sperms and 1 mM in the case of frozen sperms. The sperms were pre-incubated with a MBCD-containing TYH culture medium (no glutathione) before fertilization, in the same manner as in Example 3. The pre-incubation time was 1 hour in the case of fresh sperms and 30 minutes in the case of frozen sperms.
The sperms were pre-incubated with a MBCD-containing TYH culture medium (no glutathione) before fertilization, in the same manner as in Example 3. The pre-incubation time was 1 hour.

[2] = test system: protein thiol in zona pellucida; conditions: glutathione 0.25 to 2.0 mM, 37° C., 1 hour; Alexa Fluor 488 C5-maleimide
Procedure: Mouse fresh unfertilized ovums in which cumulus cells had been removed prepared according to the above-described “1. Preparation of oocyte” were prepared, then, 100 μl of an HTF culture medium containing glutathione at various concentrations (0, 0.25, 0.5, 0.75, 1.0, 1.25, 1.5 and 2.0 mM) was dropped onto the bottom of a petri dish, and 50 embryos were inserted into this, and treated at 37° C. for 1 hour. Thereafter, a protein thiol in zona pellucida was detected by using a thiol-reactive fluorescent dye (Alexa Fluor 488 C5-maleimide).

[3] = test system: 2-cell stage embryos transplanted into female mice; conditions: fertilization and incubation in HTF with 1 mM glutathione; frozen C57BL/6J sperms
Excerpt: As the receptive female, ICR mice are used, and on the day before transplantation, external genitals are observed and those in the proestrus stage are selected and allowed to live together with vasoligated males. On the following day, those showing vaginal plug are used as the receptive female (on day 1 of pseudopregnancy). The skin and abdominal wall of the anesthetized receptive female are incised, and part of ovary, oviduct and uterus is exposed to the outside of the body through the incised portion, and fat adhered to ovary is fixed by a clamp. A 200 μl drop for transplantation is produced at the center of a dish, and embryos to be transplanted (20/individual) are transferred into the drop for transplantation. Next, 10 embryos are sucked together with a small amount of an incubation solution into a transplantation capillary. About ½ to ⅔ of the circumference of oviduct is incised, and the capillary containing embryos is inserted through the incised portion toward ampulla of oviduct and embryos are transplanted. Also into the opposite oviduct, embryos are transplanted by the same operation procedure.
The offspring rate (implanting rate) after embryo transplantation is determined according to the following formula. Offspring development rate (%)=(number of offspring)/(number of transplanted embryo)×100 […]

`N[C@@H](CCC(=O)N[C@@H](CS)C(=O)NCC(=O)O)C(=O)O` [glutathione, reduced glutathione] was tested, and the “fertilization rate (%)” value ([1]; 129T2/SvEmsJ, cryopreserved sperms pre-incubated with MBCD, glutathione 1 mM) was 82.1%, the “fertilization rate (%)” value ([1]; 129T2/SvEmsJ, fresh sperms pre-incubated with MBCD, glutathione 0.25 mM) was 84.9% and the “fertilization rate (%)” value ([1]; B6C3F1, cryopreserved sperms pre-incubated with MBCD, glutathione 1 mM) was 87.6%. For the same compound, the “fertilization rate (%)” value ([1]; B6C3F1, fresh sperms pre-incubated with MBCD, glutathione 0.25 mM) was 97.7%, the “fertilization rate (%)” value ([1]; BALB/c, cryopreserved sperms pre-incubated with MBCD, glutathione 1 mM) was 68.3% and the “fertilization rate (%)” value ([1]; BALB/c, fresh sperms pre-incubated with MBCD, glutathione 0.25 mM) was 74.7%. The “fertilization rate (%)” value ([1]; BDF1, cryopreserved sperms pre-incubated with MBCD, glutathione 1 mM) was 98.3%, the “fertilization rate (%)” value ([1]; BDF1, fresh sperms pre-incubated with MBCD, glutathione 0.25 mM) was 94.2% and the “fertilization rate (%)” value ([1]; C3H/He, cryopreserved sperms pre-incubated with MBCD, glutathione 1 mM) was 98.0%. For the same compound, the “fertilization rate (%)” value ([1]; C3H/He, fresh sperms pre-incubated with MBCD, glutathione 0.25 mM) was 97.5%, the “fertilization rate (%)” value ([1]; C57BL/6J, cryopreserved sperms pre-incubated with MBCD, glutathione 1 mM) was 97.9% and the “fertilization rate (%)” value ([1]; C57BL/6J, fresh sperms pre-incubated with MBCD, glutathione 0.25 mM) was 95.6%. The “fertilization rate (%)” value ([1]; C57BL/6N, cryopreserved sperms pre-incubated with MBCD, glutathione 1 mM) was 90.9%, the “fertilization rate (%)” value ([1]; C57BL/6N, fresh sperms pre-incubated with MBCD, glutathione 0.25 mM) was 90.9% and the “fertilization rate (%)” value ([1]; DBA/2N, cryopreserved sperms pre-incubated with MBCD, glutathione 1 mM) was 95.8%. For the same compound, the “fertilization rate (%)” value ([1]; DBA/2N, fresh sperms pre-incubated with MBCD, glutathione 0.25 mM) was 95.2%, the “fertilization rate (%)” value ([1]; ICR, cryopreserved sperms pre-incubated with MBCD, glutathione 1 mM) was 94.9% and the “fertilization rate (%)” value ([1]; ICR, fresh sperms pre-incubated with MBCD, glutathione 0.25 mM) was 93.8%. The “reduced glutathione concentration giving remarkable improvement in fertilization rate” value ([1]; fresh sperms) was ≥ 0.075 mg/mL, the “fertilization rate (%)” value ([1]; fresh sperms of C57BL/6J mice, glutathione 1 mM in HTF) was 82.5% and the “effect on fertilization rate” value ([1]; fresh sperms, various lineages, glutathione 0.25 mM) was “sufficient improvement in fertilization rate”. For the same compound, the “glutathione concentration at which improvement in fertilization rate was confirmed” value ([1]; frozen C57BL/6J sperms) was ≥ 0.5 mM, the “fertilization rate (%)” value ([1]; frozen sperms of C57BL/6J mice, glutathione 1 mM in HTF) was 92.1% and the “effect on fertilization rate” value ([1]; frozen sperms, all mouse lineages, glutathione 1 mM) was “remarkable improvement in fertilization rate for frozen sperms”. For the same compound, the “number of 2-cell stage embryo(%)” value ([1]; glutathione 0.25 mM, frozen C57BL/6J sperms) was 67%, the “number of 2-cell stage embryo” value ([1]; glutathione 0.25 mM, frozen C57BL/6J sperms, 279 oocytes) was 187 and the “number of 2-cell stage embryo(%)” value ([1]; glutathione 0.50 mM, frozen C57BL/6J sperms) was 79%. The “number of 2-cell stage embryo” value ([1]; glutathione 0.50 mM, frozen C57BL/6J sperms, 316 oocytes) was 251, the “number of 2-cell stage embryo(%)” value ([1]; glutathione 0.75 mM, frozen C57BL/6J sperms) was 82% and the “number of 2-cell stage embryo” value ([1]; glutathione 0.75 mM, frozen C57BL/6J sperms, 307 oocytes) was 252. The “effect on fertilization rate” value ([1]; glutathione 1 mM, fresh, frozen and refrigerated sperms) was “significant improvement in fertilization rate”, the “number of 2-cell stage embryo(%)” value ([1]; glutathione 1.00 mM, frozen C57BL/6J sperms) was 92% and the “number of 2-cell stage embryo” value ([1]; glutathione 1.00 mM, frozen C57BL/6J sperms, 276 oocytes) was 254. For the same compound, the “number of 2-cell stage embryo(%)” value ([1]; glutathione 1.25 mM, frozen C57BL/6J sperms) was 93%, the “number of 2-cell stage embryo” value ([1]; glutathione 1.25 mM, frozen C57BL/6J sperms, 292 oocytes) was 272 and the “number of 2-cell stage embryo(%)” value ([1]; glutathione 1.50 mM, frozen C57BL/6J sperms) was 89%. For the same compound, the “number of 2-cell stage embryo” value ([1]; glutathione 1.50 mM, frozen C57BL/6J sperms, 294 oocytes) was 262, the “number of 2-cell stage embryo(%)” value ([1]; glutathione 2.00 mM, frozen C57BL/6J sperms) was 92% and the “number of 2-cell stage embryo” value ([1]; glutathione 2.00 mM, frozen C57BL/6J sperms, 309 oocytes) was 285. The “number of 2-cell stage embryo(%)” value ([1]; glutathione 5.00 mM, frozen C57BL/6J sperms) was 86%, the “number of 2-cell stage embryo” value ([1]; glutathione 5.00 mM, frozen C57BL/6J sperms, 292 oocytes) was 251 and the “number of 2-cell stage embryo(%)” value ([1]; glutathione 10.00 mM, frozen C57BL/6J sperms) was 81%. For the same compound, the “number of 2-cell stage embryo” value ([1]; glutathione 10.00 mM, frozen C57BL/6J sperms, 341 oocytes) was 276, the “fertilization rate (%)” value ([1]; refrigerated sperms (2 days) of ICR mice, glutathione 1 mM in HTF) was 63.9% and the fertilization rate ([1]; refrigerated sperms of C57BL/6J mice pre-incubated with MBCD 1 hour, glutathione 0.5 mM) was 85.4%. For the same compound, the “fluorescent intensity in zona pellucida (free thiol group)” value [2] was “the fluorescent intensity in zona pellucida increased depending on the concentration of glutathione”, the offspring development rate [3] was 53.8% and the “offspring development rate (offspring/transplanted embryos)” value [3] was 43/80.
